Laboratory results from the NIST ThermoML archive (doi:10.1016/j.jct.2018.09.037).
Several values for one entry are separate records, joined by “and”; a condition that tells them apart may be missing. Equal entries are not always repeated.

Assay: xn = mol fraction of the nth substance listed
Conditions: 100 kPa, Liquid, Electromagnetic levitation / mass taken directly, volume taken from sample image

[Pd] [palladium] + [Fe]
Conditions | mass density
1414 K, x1 = 0.6 | 8979 kg/m3
1437 K, x1 = 0.6 | 8950 kg/m3
1440 K, x1 = 0.8 | 9717 kg/m3
1476 K, x1 = 0.6 | 8899 kg/m3
1483 K, x1 = 0.6 | 8904 kg/m3
1483 K, x1 = 0.8 | 9676 kg/m3
1500 K, x1 = 0.4 | 8297 kg/m3
1512 K, x1 = 0.4 | 8275 kg/m3
1536 K, x1 = 0.6 | 8856 kg/m3
1543 K, x1 = 0.8 | 9619 kg/m3
1551 K, x1 = 0.6 | 8825 kg/m3
1562 K, x1 = 0.4 | 8208 kg/m3
1590 K, x1 = 0.6 | 8791 kg/m3
1598 K, x1 = 0.8 | 9769 kg/m3
1613 K, x1 = 0.6 | 8779 kg/m3
1613 K, x1 = 0.8 | 9499 kg/m3
1624 K, x1 = 0.8 | 9547 kg/m3
1625 K, x1 = 0.4 | 8150 kg/m3
1625 K, x1 = 0.8 | 9735 kg/m3
1630 K, x1 = 0.2 | 7824 kg/m3
1633 K, x1 = 0.6 | 8756 kg/m3
1651 K, x1 = 0.2 | 7615 kg/m3
1663 K, x1 = 0.6 | 8735 kg/m3
1665 K, x1 = 0.8 | 9694 kg/m3
1667 K, x1 = 0.6 | 8709 kg/m3
1668 K, x1 = 0.2 | 7805 kg/m3
1672 K, x1 = 0.8 | 9450 kg/m3
1681 K, x1 = 0.2 | 7789 kg/m3 and 7591 kg/m3
1707 K, x1 = 0.8 | 9656 kg/m3
1711 K, x1 = 0.4 | 8076 kg/m3
1713 K, x1 = 0.2 | 7775 kg/m3
1715 K, x1 = 0.6 | 8695 kg/m3
1721 K, x1 = 0.2 | 7550 kg/m3
1725 K, x1 = 0.6 | 8660 kg/m3
1742 K, x1 = 0.2 | 7739 kg/m3
1749 K, x1 = 0.8 | 9379 kg/m3
1767 K, x1 = 0.8 | 9602 kg/m3
1772 K, x1 = 0.2 | 7506 kg/m3
1789 K, x1 = 0.6 | 8633 kg/m3
1790 K, x1 = 1 | 10670 kg/m3
1795 K, x1 = 1 | 10672 kg/m3
1796 K, x1 = 1 | 10652 kg/m3
1802 K, x1 = 1 | 10686 kg/m3
1809 K, x1 = 1 | 10670 kg/m3
1820 K, x1 = 1 | 10677 kg/m3
1829 K, x1 = 0.4 | 7971 kg/m3
1831 K, x1 = 1 | 10627 kg/m3
1832 K, x1 = 0.4 | 7965 kg/m3
1832 K, x1 = 0.8 | 9536 kg/m3
1838 K, x1 = 0.2 | 7700 kg/m3
1841 K, x1 = 0.8 | 9278 kg/m3
1843 K, x1 = 1 | 10654 kg/m3
1856 K, x1 = 1 | 10601 kg/m3
1864 K, x1 = 0.2 | 7646 kg/m3
1872 K, x1 = 0.2 | 7426 kg/m3
1878 K, x1 = 1 | 10558 kg/m3
1879 K, x1 = 0.6 | 8530 kg/m3
1889 K, x1 = 0.6 | 8544 kg/m3
1889 K, x1 = 1 | 10592 kg/m3
1890 K, x1 = 1 | 10575 kg/m3
1916 K, x1 = 0.8 | 9434 kg/m3
1917 K, x1 = 1 | 10529 kg/m3
1935 K, x1 = 1 | 10478 kg/m3
1951 K, x1 = 1 | 10465 kg/m3
